The values that follow come from US20260250318A1, “COMPOSITIONS AND METHODS FOR CROSSING THE BLOOD BRAIN BARRIER” (VOYAGER THERAPEUTICS, INC., priority 2022, published 2026).

The subject of test [1] is brains, heart, liver, muscle, and DRG of the NHPs. As to the kind of experiment: Maturation of TTM-001 and TTM-002 capsids, NGS enrichment in NHP tissues. The format is in vivo. As to conditions: relative to AAV9 control. A digest of the protocol: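 Variants carry mutations within and flanking the loop IV peptide insert: positions 450–466 were triplet-randomized, while positions 449–466 received low-frequency point mutations. The combined pool went into two NHPs, and each peptide was scored by NGS enrichment ratio against AAV9.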

A further test deals with brain. In words: Matured TTM-001 and TTM-002 variants, NGS enrichment in mouse brain. The format is in vivo, mice. As to conditions: relative to AAV9 control.
Setting [2] is: NGS fold-enrichment, DRG of NHPs.
Where [3] appears, read: NGS fold-enrichment, RNA, brain of NHPs.
The mark [4] stands for this setting: NGS fold-enrichment, heart of NHPs.
[5] abbreviates: NGS fold-enrichment, liver DNA of NHPs.
The mark [6] stands for this setting: NGS fold-enrichment, liver RNA of NHPs.
[7] abbreviates: NGS fold-enrichment, muscle of NHPs.
Setting [8] is: NGS fold-enrichment, brain of mice.
Setting [9] is: NGS fold-enrichment of RNA, NHP brain.
Setting [10] is: NGS fold-enrichment, NHP liver DNA.
[11] abbreviates: NGS fold-enrichment, NHP liver RNA.
[12] abbreviates: NGS fold-enrichment, NHP muscle.
[13] abbreviates: NGS fold-enrichment, mouse brain.
The mark [14] stands for this setting: NGS fold-enrichment of matured AAV capsid variants, NHP brain, RNA.

In the case of KTVRDSGSPHSKAQNQQT, the “Fold Enrichment relative to AAV9, DRG (NHP)” value in test [1] (setting [2]) is 0.000 fold. Moreover, in test [1] (setting [3]), the “Fold Enrichment relative to AAV9, Brain (NHP)” value stood at 66.056 fold. In test [1] (setting [4]), the “Fold Enrichment relative to AAV9, Heart (NHP)” value is reported as 0.025 fold. Besides, the “Fold Enrichment relative to AAV9, Liver DNA (NHP)” value in test [1] (setting [5]) stood at 0.461 fold. Also, in test [1] (setting [6]), the “Fold Enrichment relative to AAV9, Liver RNA (NHP)” value turned out to be 0.129 fold. The “Fold Enrichment relative to AAV9, Muscle (NHP)” value in test [1] (setting [7]) came to 0.000 fold. Besides, the “Fold Enrichment relative to AAV9, Brain (Mouse)” value with brain (setting [8]) was 142.600 fold.
As for KTSNESGSPHSKAQNHQT, the “Fold Enrichment relative to AAV9, Brain (NHP)” value in test [1] (setting [9]) and in test [1] (setting [3]) was 75.720 fold each time. Also, the “Fold Enrichment relative to AAV9, DRG (NHP)” value in test [1] (setting [2]) amounted to 0.000 fold; in test [1] (NGS fold-enrichment, NHP DRG), 0.000 fold. Further, the “Fold Enrichment relative to AAV9, Heart (NHP)” value in test [1] (NGS fold-enrichment, NHP heart) is given as 0.000 fold; in test [1] (setting [4]) it was 0.000 fold. In addition, the “Fold Enrichment relative to AAV9, Liver DNA (NHP)” value in test [1] (setting [10]) and in test [1] (setting [5]) was 0.217 fold each time. The “Fold Enrichment relative to AAV9, Liver RNA (NHP)” value in test [1] (setting [11]) and in test [1] (setting [6]) was 0.169 fold in each case. For the same sequence, the “Fold Enrichment relative to AAV9, Muscle (NHP)” value in test [1] (setting [12]) and in test [1] (setting [7]) was 0.000 fold throughout. Also, the “Fold Enrichment relative to AAV9, Brain (Mouse)” value in the test with brain (setting [8]) and with brain (setting [13]) was 70.590 fold throughout.
For the sequence KNTNGSGSPHSKAQNQQT, the “Fold Enrichment relative to AAV9, Brain (NHP)” value in test [1] (setting [9]) is on record as 78.445 fold. Moreover, in test [1] (NGS fold-enrichment, NHP DRG), the “Fold Enrichment relative to AAV9, DRG (NHP)” value stood at 0.000 fold. Besides, the “Fold Enrichment relative to AAV9, Heart (NHP)” value in test [1] (NGS fold-enrichment, NHP heart) stood at 0.000 fold. The “Fold Enrichment relative to AAV9, Liver DNA (NHP)” value in test [1] (setting [10]) is reported as 0.177 fold. The “Fold Enrichment relative to AAV9, Liver RNA (NHP)” value in test [1] (setting [11]) turned out to be 0.571 fold. The “Fold Enrichment relative to AAV9, Muscle (NHP)” value in test [1] (setting [12]) is on record as 0.000 fold. The “Fold Enrichment relative to AAV9, Brain (Mouse)” value in the test with brain (setting [13]) worked out at 89.719 fold.
Regarding KTVNGHDSPHKIGHNQQT, in test [1] (setting [9]), the “Fold Enrichment relative to AAV9, Brain (NHP)” value worked out at 120.985 fold. In addition, the “Fold Enrichment relative to AAV9, DRG (NHP)” value in test [1] (NGS fold-enrichment, NHP DRG) was determined as 0.000 fold. In test [1] (NGS fold-enrichment, NHP heart), the “Fold Enrichment relative to AAV9, Heart (NHP)” value amounted to 0.029 fold. Also, the “Fold Enrichment relative to AAV9, Liver DNA (NHP)” value in test [1] (setting [10]) was 0.009 fold. The “Fold Enrichment relative to AAV9, Liver RNA (NHP)” value in test [1] (setting [11]) is given as 0.000 fold. The “Fold Enrichment relative to AAV9, Muscle (NHP)” value in test [1] (setting [12]) is 0.000 fold. In addition, in the test on brain (setting [13]), the “Fold Enrichment relative to AAV9, Brain (Mouse)” value stood at 10.167 fold.
As for KTINGCGSPHASGQNQQT, the “Fold Enrichment relative to AAV9, Brain (NHP)” value in test [1] (setting [9]) was determined as 132.540 fold. The “Fold Enrichment relative to AAV9, DRG (NHP)” value in test [1] (NGS fold-enrichment, NHP DRG) is listed as 0.000 fold. For the same sequence, the “Fold Enrichment relative to AAV9, Heart (NHP)” value in test [1] (NGS fold-enrichment, NHP heart) is 0.121 fold. In test [1] (setting [10]), the “Fold Enrichment relative to AAV9, Liver DNA (NHP)” value is recorded as 0.059 fold. For the same sequence, the “Fold Enrichment relative to AAV9, Liver RNA (NHP)” value in test [1] (setting [11]) is on record as 0.000 fold. In addition, the “Fold Enrichment relative to AAV9, Muscle (NHP)” value in test [1] (setting [12]) is 0.042 fold. In addition, in the test on brain (setting [13]), the “Fold Enrichment relative to AAV9, Brain (Mouse)” value is reported as 1.857 fold.
Turning to KEVVGSGSPHSKAQNQQT, in test [1] (setting [14]), the “Fold Enrichment relative to AAV9, Brain (NHP)” value was determined as 56.371 fold. Further, the “Fold Enrichment relative to AAV9, DRG (NHP)” value in test [1] (NHP DRG) turned out to be 0.000 fold. For the same sequence, in test [1] (NHP heart), the “Fold Enrichment relative to AAV9, Heart (NHP)” value came to 0.000 fold. In addition, the “Fold Enrichment relative to AAV9, Liver DNA (NHP)” value in test [1] (NHP liver, DNA) was determined as 0.323 fold. In addition, in test [1] (NHP liver, RNA), the “Fold Enrichment relative to AAV9, Liver RNA (NHP)” value came out at 0.000 fold. The “Fold Enrichment relative to AAV9, Muscle (NHP)” value in test [1] (NHP muscle) is reported as 0.000 fold. Also, the “Fold Enrichment relative to AAV9, Brain (Mouse)” value in the test with brain (mouse brain) amounted to 116.964 fold.
For “NTIYGSGSPHSKAQNQQT (peptide inserted in AAV capsid)”, the “Fold Enrichment relative to AAV9, DRG (NHP)” value in test [1] (setting [2]) turned out to be 1.739 fold. Moreover, in test [1] (setting [3]), the “Fold Enrichment relative to AAV9, Brain (NHP)” value is 71.267 fold. In test [1] (setting [4]), the “Fold Enrichment relative to AAV9, Heart (NHP)” value stood at 0.000 fold. Also, the “Fold Enrichment relative to AAV9, Liver DNA (NHP)” value in test [1] (setting [5]) is given as 0.209 fold. Further, in test [1] (setting [6]), the “Fold Enrichment relative to AAV9, Liver RNA (NHP)” value worked out at 0.000 fold. In test [1] (setting [7]), the “Fold Enrichment relative to AAV9, Muscle (NHP)” value worked out at 273.69 fold. Also, the “Fold Enrichment relative to AAV9, Brain (Mouse)” value with brain (setting [8]) was determined as 59.707 fold.
Regarding KTINGSGSPHSKVPNLQT, the “Fold Enrichment relative to AAV9, Brain (NHP)” value in test [1] (setting [14]) is on record as 57.046 fold. For the same sequence, the “Fold Enrichment relative to AAV9, DRG (NHP)” value in test [1] (NHP DRG) worked out at 0.000 fold. Besides, the “Fold Enrichment relative to AAV9, Heart (NHP)” value in test [1] (NHP heart) worked out at 0.029 fold. The “Fold Enrichment relative to AAV9, Liver DNA (NHP)” value in test [1] (NHP liver, DNA) worked out at 0.082 fold. The “Fold Enrichment relative to AAV9, Liver RNA (NHP)” value in test [1] (NHP liver, RNA) turned out to be 0.459 fold. Moreover, the “Fold Enrichment relative to AAV9, Muscle (NHP)” value in test [1] (NHP muscle) was determined as 0.000 fold. Besides, the “Fold Enrichment relative to AAV9, Brain (Mouse)” value with brain (mouse brain) was 50.474 fold.
